Assay results reported in patent US20210261642A1, “SOLUBILITY OF GLP-1 PEPTIDE” (Novo Nordisk A/S, priority 2017, published 2021).
In brackets after ≈: the same amount, converted by molar mass. Read-outs that look alike come from different tables or passages of the source.

Experiment: Assay (I): Determination of Solubility (96-well plate, pH 3.0-11.0, organic solvent 0-70% w/w, UV absorption at 280 nm)
Format: physicochemical
Details: for GLP-1 peptide concentration: Method 2 (precipitation), 5° C.; for solubility thermodynamic at 24 h: read-out: Peptide concentration after 24 h
Procedure: Assay (I): Determination of Solubility
96-Well Plate Preparation
96-well plates containing target peptide in a solid form were prepared in one of two ways:
Method 1 (evaporation): Addition of 100 μl stock solution of said peptide at a concentration of 4-6 mg/ml to each well of a 96-well half area plate (150 μl well size). Subsequently the solvent was evaporated by applying a vacuum until the solvent was completely removed.
Method 2 (precipitation): Addition of a certain volume of a stock solution of said peptide containing to each well of a 96-well half area plate followed by the addition of a certain volume of concentrated phosphoric acid to obtain a pH of 4.6 followed by addition of a certain volume of ethanol resulting in a final ethanol concentration of 20% v/v. Subsequently the plate was stored at 4° C. for 1 h and then centrifuged at 4,000 rpm for 20 min. Finally the supernatant was removed. The concentration of the stock solution was chosen in a way that the final amount of peptide after supernatant removal was >0.4 mg per well.
In both cases the stock solution was prepared by adding de-ionized water to a certain amount of powder of said peptide followed by a stepwise addition of small amounts of a concentrated sodium hydroxide solution until said peptide was completely in solution.
To determine solubility of a target peptide at different pH and organic solvent concentrations, two different buffer systems were used in independent experiments to cover the whole range from pH 3.0 to pH 11.0. Buffer system 1 covers pH 3.0-7.5 and buffer system 2 covers pH 7.5-11.0. For each buffer system 96 different solvent compositions were premixed in the following way: • 1. A low pH buffer (adjusted to either pH 3.0 or pH 7.5) and a high pH buffer (adjusted to either pH 7.5 or pH 11.0) were mixed at 8 different ratios to obtain values between pH 3.0 and pH 7.5 or pH 7.5 and pH 11.0, respectively. The total volume after mixing was 300 μl. • 2. 12 different amounts of organic solvent were then added to these buffers to obtain organic solvent (e.g. ethanol) concentrations between 0 and 70% w/w. • 3. Water was then added to obtain a total weight of 1.0 g of solvent in each well.
After preparing the 96 different solvent systems, 100 μl of each system was transferred to the 96-well plate containing the solid form of the target peptide (prepared as described in the section “96-well plate preparation”). The plate was then stored at a given temperature (between 5° C. and 70° C.) for a given time on a rotating shaker set to 400 rpm. At regular time intervals the plate was centrifuged (4,000 rpm for 10 min) and a 10 μl sample was taken from each well. The samples were then analysed by UV absorption at 280 nm for peptide quantification. Peptide concentration results are given as UV absorption at 280 nm of the sample subtracted UV absorption at 280 nm of a well comprising 10 μl water.
The buffers used were as follows: • Buffer system 1 (for the pH range from pH 3.0-7.5)
• Buffer system 2 (for the pH ranae from pH 7.5-11.0)
Solubility of liraglutide was determined using Assay (I) described herein. Liraglutide was prepared using Method 1 (evaporation) or Method 2 (precipitation) as described in subsection “96-well plate preparation”.

- GLP-1 peptide concentration (MeCN 63.6% w/w, pH 10.00, 5 min, before removal of outliers): 0.4 mg/mL
- GLP-1 peptide concentration (MeCN 63.6% w/w, pH 10.00, 180 min, after removal of outliers): 2.9 mg/mL
- GLP-1 peptide concentration (MeCN 63.6% w/w, pH 10.00, 180 min, before removal of outliers): 2.9 mg/mL
- GLP-1 peptide concentration (MeCN 63.6% w/w, pH 10.00, 24 h, after removal of outliers): 1.0 mg/mL
- GLP-1 peptide concentration (MeCN 63.6% w/w, pH 10.00, 24 h, before removal of outliers): 1.0 mg/mL
- GLP-1 peptide concentration (MeCN 63.6% w/w, pH 10.50, 5 min, after removal of outliers): 0.6 mg/mL
- GLP-1 peptide concentration (MeCN 63.6% w/w, pH 10.50, 5 min, before removal of outliers): 0.6 mg/mL
- GLP-1 peptide concentration (MeCN 63.6% w/w, pH 10.50, 180 min, after removal of outliers): 3.4 mg/mL
- GLP-1 peptide concentration (MeCN 63.6% w/w, pH 10.50, 180 min, before removal of outliers): 3.4 mg/mL
- GLP-1 peptide concentration (MeCN 63.6% w/w, pH 10.50, 24 h, after removal of outliers): 1.3 mg/mL
- GLP-1 peptide concentration (MeCN 63.6% w/w, pH 10.50, 24 h, before removal of outliers): 1.3 mg/mL
- GLP-1 peptide concentration (MeCN 63.6% w/w, pH 11.00, 5 min, after removal of outliers): 0.5 mg/mL
- GLP-1 peptide concentration (MeCN 63.6% w/w, pH 11.00, 5 min, before removal of outliers): 0.5 mg/mL
- GLP-1 peptide concentration (MeCN 63.6% w/w, pH 11.00, 180 min, after removal of outliers): 3.2 mg/mL
- GLP-1 peptide concentration (MeCN 63.6% w/w, pH 11.00, 180 min, before removal of outliers): 3.2 mg/mL
- GLP-1 peptide concentration (MeCN 63.6% w/w, pH 11.00, 24 h, after removal of outliers): 1.0 mg/mL
- GLP-1 peptide concentration (MeCN 63.6% w/w, pH 11.00, 24 h, before removal of outliers): 1.0 mg/mL
- GLP-1 peptide concentration (MeCN 70.0% w/w, pH 7.50, 5 min, before removal of outliers): 0.3 mg/mL
- GLP-1 peptide concentration (MeCN 70.0% w/w, pH 7.50, 180 min, before removal of outliers): 0.7 mg/mL
- GLP-1 peptide concentration (MeCN 70.0% w/w, pH 7.50, 24 h, before removal of outliers): 1.6 mg/mL
- GLP-1 peptide concentration (MeCN 70.0% w/w, pH 8.00, 5 min, after removal of outliers): 0.4 mg/mL
- GLP-1 peptide concentration (MeCN 70.0% w/w, pH 8.00, 5 min, before removal of outliers): 0.4 mg/mL
- GLP-1 peptide concentration (MeCN 70.0% w/w, pH 8.00, 180 min, after removal of outliers): 1.0 mg/mL
- GLP-1 peptide concentration (MeCN 70.0% w/w, pH 8.00, 180 min, before removal of outliers): 1.0 mg/mL
- GLP-1 peptide concentration (MeCN 70.0% w/w, pH 8.00, 24 h, after removal of outliers): 2.5 mg/mL
- GLP-1 peptide concentration (MeCN 70.0% w/w, pH 8.00, 24 h, before removal of outliers): 2.5 mg/mL
- GLP-1 peptide concentration (MeCN 70.0% w/w, pH 8.50, 5 min, after removal of outliers): 0.4 mg/mL
- GLP-1 peptide concentration (MeCN 70.0% w/w, pH 8.50, 5 min, before removal of outliers): 0.4 mg/mL
- GLP-1 peptide concentration (MeCN 70.0% w/w, pH 8.50, 180 min, after removal of outliers): 1.4 mg/mL
- GLP-1 peptide concentration (MeCN 70.0% w/w, pH 8.50, 180 min, before removal of outliers): 1.4 mg/mL
- GLP-1 peptide concentration (MeCN 70.0% w/w, pH 8.50, 24 h, after removal of outliers): 3.3 mg/mL
- GLP-1 peptide concentration (MeCN 70.0% w/w, pH 8.50, 24 h, before removal of outliers): 3.3 mg/mL
- GLP-1 peptide concentration (MeCN 70.0% w/w, pH 9.00, 5 min, after removal of outliers): 0.4 mg/mL
- GLP-1 peptide concentration (MeCN 70.0% w/w, pH 9.00, 5 min, before removal of outliers): 0.4 mg/mL
- GLP-1 peptide concentration (MeCN 70.0% w/w, pH 9.00, 180 min, after removal of outliers): 1.5 mg/mL
- GLP-1 peptide concentration (MeCN 70.0% w/w, pH 9.00, 180 min, before removal of outliers): 1.5 mg/mL
- GLP-1 peptide concentration (MeCN 70.0% w/w, pH 9.00, 24 h, after removal of outliers): >4.0 mg/mL
- GLP-1 peptide concentration (MeCN 70.0% w/w, pH 9.00, 24 h, before removal of outliers): >4.0 mg/mL
- GLP-1 peptide concentration (MeCN 70.0% w/w, pH 9.50, 5 min, after removal of outliers): 0.5 mg/mL
- GLP-1 peptide concentration (MeCN 70.0% w/w, pH 9.50, 5 min, before removal of outliers): 0.5 mg/mL
- GLP-1 peptide concentration (MeCN 70.0% w/w, pH 9.50, 180 min, before removal of outliers): 1.9 mg/mL
- GLP-1 peptide concentration (MeCN 70.0% w/w, pH 9.50, 24 h, before removal of outliers): >4.0 mg/mL
- solubility thermodynamic at 24 h (aqueous buffer / organic solvent mixture, pH 3.1, aqueous buffer, DMF 0.0% w/w, pH 3.1, RT, Method 1 (evaporation)): 300 µg/mL (≈ 80 µM)
- solubility thermodynamic at 24 h (aqueous buffer / organic solvent mixture, pH 4.8, aqueous buffer, DMF 0.0% w/w, pH 4.8, RT, Method 1 (evaporation)): 200 µg/mL (≈ 53.3 µM)
- solubility thermodynamic at 24 h (aqueous buffer / organic solvent mixture, pH 5.8, aqueous buffer, DMF 0.0% w/w, pH 5.8, RT, Method 1 (evaporation)): 1500 µg/mL (≈ 400 µM)
- solubility thermodynamic at 24 h (aqueous buffer / organic solvent mixture, pH 6.7, aqueous buffer, DMF 0.0% w/w, pH 6.7, RT, Method 1 (evaporation)): 2200 µg/mL (≈ 586 µM)
- solubility thermodynamic at 24 h (pH 3, aqueous buffer, MeCN 0.0% w/w, pH 3.0, RT, Method 1): 100 µg/mL (≈ 26.7 µM)
- solubility thermodynamic at 24 h (pH 3.6, aqueous buffer, MeCN 0.0% w/w, pH 3.6, RT, Method 1): 100 µg/mL (≈ 26.7 µM)
- solubility thermodynamic at 24 h (pH 4.9, aqueous buffer, MeCN 0.0% w/w, pH 4.9, 5° C., Method 1): 100 µg/mL (≈ 26.7 µM)
- solubility thermodynamic at 24 h (pH 6.2, aqueous buffer, MeCN 0.0% w/w, pH 6.2, 5° C., Method 1): 100 µg/mL (≈ 26.7 µM)
- solubility thermodynamic at 24 h (pH 6.2, aqueous buffer, MeCN 0.0% w/w, pH 6.2, RT, Method 1): 500 µg/mL (≈ 133 µM)
- solubility thermodynamic at 24 h (premixed buffer/organic solvent/water solvent system, pH 4.3, aqueous buffer, MeCN 0.0% w/w, pH 4.3, 5° C., Method 1): 200 µg/mL (≈ 53.3 µM)
SMILES: CCCCCCCCCCCCCCCC(=O)N[C@@H](CCC(=O)NCCCC[C@H](NC(=O)[C@H](C)NC(=O)[C@H](C)NC(=O)[C@H](CCC(N)=O)NC(=O)CNC(=O)[C@H](CCC(=O)O)NC(=O)[C@H](CC(C)C)NC(=O)[C@H](Cc1ccc(O)cc1)NC(=O)[C@H](CO)NC(=O)[C@H](CO)NC(=O)[C@@H](NC(=O)[C@H](CC(=O)O)NC(=O)[C@H](CO)NC(=O)[C@@H](NC(=O)[C@H](Cc1ccccc1)NC(=O)[C@@H](NC(=O)CNC(=O)[C@H](CCC(=O)O)NC(=O)[C@H](C)NC(=O)[C@@H](N)Cc1cnc[nH]1)[C@@H](C)O)[C@@H](C)O)C(C)C)C(=O)N[C@@H](CCC(=O)O)C(=O)N[C@@H](Cc1ccccc1)C(=O)N[C@H](C(=O)N[C@@H](C)C(=O)N[C@@H](Cc1c[nH]c2ccccc12)C(=O)N[C@@H](CC(C)C)C(=O)N[C@H](C(=O)N[C@@H](CCCNC(=N)N)C(=O)NCC(=O)N[C@@H](CCCNC(=N)N)C(=O)NCC(=O)O)C(C)C)[C@@H](C)CC)C(=O)O [liraglutide, Arg34,Lys26-(N-epsilon-(gamma-L-glutamyl(N-alfa-hexadecanoyl)))-GLP-1(7-37)]
